In patent publication US10669242B2 (priority 2016, dated 2020):

Columns and labels:
[1] = biological target: T1, recombinant glucosyltransferase domain of C. difficile Toxin B/TcdB (Clostridioides difficile, UniProt P18177); test: biochemical
T1 construct: 6-His (C); purchased R&D Systems 6246-GT

[2] = tested on: C. difficile toxin (TcdA and TcdB, ~1:1); test: Murine C. difficile toxin model (intrarectal toxin); type: in vivo, C57BL/6 mice; settings: for IL-1β (% Inhibition) / MPO (% Inhibition): murine C. difficile toxin model, PO, 50 mg/kg body weight; for IL-1β in colon tissue / MPO in colon tissue / toxin effect on colon length: oral (PO), 50 mg/kg, intrarectal toxin 12.5 μg
Method: In the following studies, we established a murine C. difficile toxin model with modifications from a published murine model (Hirota, Iablokov et al. 2012). Details of the murine C. difficile toxin model are described in the “Experimental Protocols” (below). C. difficile toxins were isolated from a culture of the C. difficile strain VPI 10463. C. difficile toxins consisted of TcdA and TcdB (˜1:1 ratio of TcdA:TcdB). Respective TcdA and TcdB concentrations were determined by enzyme-linked immunosorbant assay (ELISA). In our mouse model, C. difficile toxins were administered intrarectally to evaluate their pathological effects.
We administered C. difficile toxin (12.5 μg/mouse) via intrarectal instillation into female C57BL/6 mice. Four (4) animals were used in each group. Four (4) hours after the toxin administration, the mice were euthanized. The colons were excised from the animals and washed with phosphate buffered saline (PBS). The colon lengths were measured. Excised colon tissues were stored at −70° C. for chemical analysis of interleukin-1β(IL-1β) and myeloperosidase (MPO) in tissues, which are the hallmarks of colon inflammation. Excised colon tissues were also stored at room temperature in 10% neutral buffered formalin for histopathological analysis.
Using the murine C. difficile toxin model (Example 61), we evaluated the efficacy of Example 6a in reducing the C. difficile toxin activity. In this study, the isolated toxin (12.5 μg) was diluted in 50 μl of PBS and mixed with a 50 μl suspension of Example 6a (10 mg/mL) in 1% carboxymethyl cellulose and 0.5% Tween 80 to achieve a fixed dose of […] of Example 6a (0.5 mg in mice weighing ˜20 g) and C. difficile toxin (12.5 μg). Three (3) animals were used in each group.
In this study, we evaluated the efficacy of Example 6a via different routes of administration (i.e., oral (PO) and intraperitoneal (IP) administrations) in the same murine C. difficile toxin model (Example 61). In both PO and IP dosages, Example 6a was prepared as 5 mg/mL solutions in 20% PEG-400, 0.4% carboxymethyl cellulose and 0.2% Tween 80. Example 6a was administered at a final dose of 50 mg/kg body weight. Three (3) mice were used in each group (i.e., vehicle (control), PO and IP).
Using the murine C. difficile toxin model (Example 63), we further tested the efficacy of four (4) additional compounds (i.e., Example 6a, Example 5ae, Example 4cl, and Example 5al) via PO administration. All of the compounds were dosed orally at 50 mg/kg body weight. In three separate studies a total of three (3) to fourteen (14) mice were used in each group.
We evaluated the efficacy of additional compounds in reducing C. difficile toxicity. Using the PO administration (Example 63), we further tested 30 compounds (Table 34). All of the compounds were dosed orally at 50 mg/kg body weight. Three (3) to fourteen (14) animals were used for each compound. % inhibition was determined by the following formula: […]
An overnight culture of C. difficile strain VPI 10463 (American Type Culture Collection) was grown at 37° C. in Brain-Heart Infusion (BHI) broth using the GasPak EZ Anaerobe Pouch System (Becton Dickinson). 2 mL of the culture was added to 28 mL of phosphate buffered saline (PBS) in a gamma-irradiated, 10,000 molecular weight cut-off, 30-70 ml Slide-A-Lyzer G2 dialysis cassette (Pierce). This cassette was submerged in 1 L of BHI broth in a 2 L beaker and incubated under anaerobic conditions for 5 days at 37° C. The culture was then transferred to a 50 mL conical tube and the cassette was washed with 10 mL of PBS. The combined culture and wash were centrifuged at 2,000 g for 20 minutes to pellet the bacteria and the supernatant was filtered through a 0.2 μm syringe filter. The filtrate was then applied to a 20 mL 150 K molecular weight cut-off concentration column (Pierce) and centrifuged at 2,000 g for 15 minutes. Concentrated supernatant was stored at 4° C. […]

[3] = biological target: T2, C. difficile full-length toxin TcdA (Clostridioides difficile, UniProt P16154); test: cell-based
T2 construct: C. difficile full-length toxins (TcdA or TcdB); purchased Enzo Life Sciences BML-G140-0050

[4] = tested on: C. difficile strain VPI 10463; test: Acute murine C. difficile infection model; type: in vivo, C57BL/6 mice; settings: PO; 52 hours after infection
Source text: In a hospital environment, C. difficile infection occurs when the patient receives an antibiotic treatment that disrupts the normal gut microflora and is exposed to C. difficile spores. The patient often fails to mount a protective immune response against the acute C. difficile infection. (Rupnik, Wilcox et al. 2009). To study the acute C. difficile infection, we established a murine C. difficile infection model. Details of the infection model are provided in the “Experimental Protocol” (below).
In brief, female C57BL/6 mice were administered the following antibiotics: colistin (0.042 units/mL), gentamicin (0.035 mg/mL), kanamycin (0.4 mg/mL), metronidazole (0.215 mg/mL) and vancomycin (0.045 mg/mL) in drinking water for 3 days. The administered antibiotics disrupted the normal gut microflora in mice. On the 4th day, mice received oral administration of 0.5 mL volume containing ˜100 spores produced from a virulent clinical C. difficile isolate (strain VPI 10463). In this acute murine C. difficile infection model, we observed a similar time course of infection when compared to that of clinical patients.
Using the developed murine C. difficile infection model (Example 67), we evaluated our test compounds for their efficacy in reducing weight loss and gut inflammation caused by the acute C. difficile infection. We tested the efficacy of Example 6a and Example 5ae and used eight (8) animals in each group.
We further tested the efficacy of the Example 6a, Example 5ae, Example 4cl, and Example 5al compounds by PO administration. Vancomycin was used as a positive control. Three (3) experiments were performed utilizing a total of five (5) to sixteen (16) animals in each group.
C. difficile strain VPI 10463 was grown for four (4) days in 10 ml of BHI in a Bactron anaerobic workstation (Shel Lab). The culture was centrifuged at 2,700 g for 10 minutes. The bacterial pellet was washed with 10 mL of PBS and the centrifugation was repeated. The pellet was then re-suspended in 10 mL of PBS, incubated at 56° C. for 10 minutes, and then was frozen at −20° C. until used. Titers of spore stocks were determined by serial dilution and plating onto BHI and with 1% taurocholate and counting of colonies after incubation for 24 hours at 37° C. using the GasPak EZ Anaerobe Pouch System.
We utilized an established C. difficile murine infection model (Chen, Katchar et al. 2008). To render them susceptible to infection, female C57BL/6 mice (˜10 weeks old and weighing ˜20 g) were administered the following antibiotics (Sigma Aldrich) in drinking water for 3 days (Days −6 to −3): colistin (0.042 units/mL), gentamicin (0.035 mg/mL), kanamycin (0.4 mg/mL), metronidazole (0.215 mg/mL) and vancomycin (0.045 mg/mL). Based upon an expected water consumption of 100 mL/kg/day, the approximate doses of these antibiotics will be as follows: colistin (4.2 units/kg/day), gentamicin (3.5 mg/kg/day), kanamycin (40 mg/kg/day), metronidazole (21.5 mg/kg/day) and vancomycin (4.5 mg/kg/day). The animals were provided with regular drinking water for two days (Day −2 and Day −1), and the next day (Day 0) they were administered clindamycin phosphate (1 mg/mL solution in PBS) at 10 mL/kg by intraperitoneal injection, for a final dose of 10 mg/kg body weight. The following day (Day 1), they were orally gavaged with ˜100 spores in a 0.5 ml volume.
Compounds were administered beginning ˜8 hours after infection, and the animals were dosed twice per day for two days (Days 2-3) with a total of four doses. Compounds were prepared as 5 mg/mL suspensions in 20% PEG-400, 0.4% carboxymethyl cellulose and 0.2% Tween 80 and administered at a dose of 10 mL/kg, for a final dose of 50 mg/kg body weight.
Animals were observed and weighed two (2) to (3) times daily. Animals that were obviously moribund or had lost >20% of their initial body weight were euthanized. Sub-groups of animals were euthanized four (4) hours after the final compound dose (52 hours after infection). […]

[5] = biological target: T3, C. difficile full-length toxin TcdB (Clostridioides difficile, UniProt P18177); test: cell-based
T3 construct: C. difficile full-length toxins (TcdA or TcdB); purchased EMD Millipore 616377

[6] = tested on: C. difficile infection (CDI); settings: patients; Louie et al. 2011; cited from earlier work

T2 sequence (P16154 whole entry, looked up): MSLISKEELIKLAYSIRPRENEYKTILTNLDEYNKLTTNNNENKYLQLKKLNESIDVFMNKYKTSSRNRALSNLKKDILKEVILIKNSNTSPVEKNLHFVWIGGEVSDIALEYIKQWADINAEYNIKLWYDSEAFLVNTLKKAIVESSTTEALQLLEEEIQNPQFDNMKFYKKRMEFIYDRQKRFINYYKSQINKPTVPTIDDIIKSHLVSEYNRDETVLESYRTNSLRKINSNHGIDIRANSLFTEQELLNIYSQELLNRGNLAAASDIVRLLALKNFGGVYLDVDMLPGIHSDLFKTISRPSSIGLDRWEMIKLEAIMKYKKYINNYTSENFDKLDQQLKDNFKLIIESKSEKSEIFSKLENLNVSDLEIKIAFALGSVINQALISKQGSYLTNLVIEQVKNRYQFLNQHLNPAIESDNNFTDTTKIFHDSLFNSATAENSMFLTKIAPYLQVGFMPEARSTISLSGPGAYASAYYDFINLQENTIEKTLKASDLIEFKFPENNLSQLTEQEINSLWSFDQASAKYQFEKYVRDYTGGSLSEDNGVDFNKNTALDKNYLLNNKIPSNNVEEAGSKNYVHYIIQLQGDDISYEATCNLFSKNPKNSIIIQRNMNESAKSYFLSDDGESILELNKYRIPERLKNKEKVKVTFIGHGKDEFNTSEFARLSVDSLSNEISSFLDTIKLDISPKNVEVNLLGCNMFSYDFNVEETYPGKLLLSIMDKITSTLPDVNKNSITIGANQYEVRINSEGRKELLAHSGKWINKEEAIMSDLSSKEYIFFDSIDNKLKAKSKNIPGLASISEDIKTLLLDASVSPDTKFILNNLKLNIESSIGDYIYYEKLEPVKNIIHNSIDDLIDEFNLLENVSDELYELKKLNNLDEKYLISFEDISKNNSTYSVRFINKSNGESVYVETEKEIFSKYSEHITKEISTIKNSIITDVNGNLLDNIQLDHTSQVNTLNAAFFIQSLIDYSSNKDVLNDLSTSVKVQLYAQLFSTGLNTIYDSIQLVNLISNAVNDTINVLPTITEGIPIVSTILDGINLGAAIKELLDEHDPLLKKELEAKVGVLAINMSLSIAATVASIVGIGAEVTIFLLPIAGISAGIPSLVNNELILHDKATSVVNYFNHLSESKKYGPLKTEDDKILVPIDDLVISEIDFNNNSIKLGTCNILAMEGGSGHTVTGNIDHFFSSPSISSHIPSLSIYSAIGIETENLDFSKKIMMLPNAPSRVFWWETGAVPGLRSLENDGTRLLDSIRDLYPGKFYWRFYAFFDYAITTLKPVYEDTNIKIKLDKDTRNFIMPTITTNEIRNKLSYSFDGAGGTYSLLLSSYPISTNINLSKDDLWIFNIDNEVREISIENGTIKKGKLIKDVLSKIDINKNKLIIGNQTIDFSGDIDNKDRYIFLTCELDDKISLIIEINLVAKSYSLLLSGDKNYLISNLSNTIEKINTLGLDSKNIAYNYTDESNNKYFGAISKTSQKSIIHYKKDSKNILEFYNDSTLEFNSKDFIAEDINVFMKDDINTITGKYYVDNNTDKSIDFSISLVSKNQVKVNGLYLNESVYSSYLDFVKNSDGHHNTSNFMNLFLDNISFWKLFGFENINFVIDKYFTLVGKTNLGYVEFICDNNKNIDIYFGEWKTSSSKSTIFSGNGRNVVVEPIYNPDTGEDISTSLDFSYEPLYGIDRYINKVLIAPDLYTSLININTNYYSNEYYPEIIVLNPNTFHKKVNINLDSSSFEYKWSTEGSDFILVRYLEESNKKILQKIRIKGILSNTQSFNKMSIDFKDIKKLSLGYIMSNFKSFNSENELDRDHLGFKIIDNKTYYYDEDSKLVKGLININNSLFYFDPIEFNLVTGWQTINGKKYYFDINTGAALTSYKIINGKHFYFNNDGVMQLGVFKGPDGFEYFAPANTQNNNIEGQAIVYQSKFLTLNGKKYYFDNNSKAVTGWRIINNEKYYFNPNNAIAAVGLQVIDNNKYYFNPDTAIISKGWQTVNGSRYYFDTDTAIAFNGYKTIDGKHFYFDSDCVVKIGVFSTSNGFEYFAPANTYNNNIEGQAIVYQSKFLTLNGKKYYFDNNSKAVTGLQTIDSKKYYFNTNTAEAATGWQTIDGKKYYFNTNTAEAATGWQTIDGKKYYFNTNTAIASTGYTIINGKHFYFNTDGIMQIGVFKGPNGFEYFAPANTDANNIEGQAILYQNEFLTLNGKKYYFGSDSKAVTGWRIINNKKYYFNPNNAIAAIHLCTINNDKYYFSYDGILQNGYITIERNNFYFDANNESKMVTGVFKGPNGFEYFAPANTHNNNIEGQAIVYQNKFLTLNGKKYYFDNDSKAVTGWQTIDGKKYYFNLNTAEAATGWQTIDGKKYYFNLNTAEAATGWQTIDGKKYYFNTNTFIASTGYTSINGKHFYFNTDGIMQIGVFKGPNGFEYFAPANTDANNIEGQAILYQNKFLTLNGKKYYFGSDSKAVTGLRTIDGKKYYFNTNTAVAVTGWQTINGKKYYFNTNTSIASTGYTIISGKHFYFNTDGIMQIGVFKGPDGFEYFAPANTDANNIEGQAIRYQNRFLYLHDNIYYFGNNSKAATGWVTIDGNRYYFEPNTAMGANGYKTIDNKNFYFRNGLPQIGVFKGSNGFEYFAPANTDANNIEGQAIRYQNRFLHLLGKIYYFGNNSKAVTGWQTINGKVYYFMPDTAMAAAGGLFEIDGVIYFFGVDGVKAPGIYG
T3 sequence (P18177 2-2366 limits assumed): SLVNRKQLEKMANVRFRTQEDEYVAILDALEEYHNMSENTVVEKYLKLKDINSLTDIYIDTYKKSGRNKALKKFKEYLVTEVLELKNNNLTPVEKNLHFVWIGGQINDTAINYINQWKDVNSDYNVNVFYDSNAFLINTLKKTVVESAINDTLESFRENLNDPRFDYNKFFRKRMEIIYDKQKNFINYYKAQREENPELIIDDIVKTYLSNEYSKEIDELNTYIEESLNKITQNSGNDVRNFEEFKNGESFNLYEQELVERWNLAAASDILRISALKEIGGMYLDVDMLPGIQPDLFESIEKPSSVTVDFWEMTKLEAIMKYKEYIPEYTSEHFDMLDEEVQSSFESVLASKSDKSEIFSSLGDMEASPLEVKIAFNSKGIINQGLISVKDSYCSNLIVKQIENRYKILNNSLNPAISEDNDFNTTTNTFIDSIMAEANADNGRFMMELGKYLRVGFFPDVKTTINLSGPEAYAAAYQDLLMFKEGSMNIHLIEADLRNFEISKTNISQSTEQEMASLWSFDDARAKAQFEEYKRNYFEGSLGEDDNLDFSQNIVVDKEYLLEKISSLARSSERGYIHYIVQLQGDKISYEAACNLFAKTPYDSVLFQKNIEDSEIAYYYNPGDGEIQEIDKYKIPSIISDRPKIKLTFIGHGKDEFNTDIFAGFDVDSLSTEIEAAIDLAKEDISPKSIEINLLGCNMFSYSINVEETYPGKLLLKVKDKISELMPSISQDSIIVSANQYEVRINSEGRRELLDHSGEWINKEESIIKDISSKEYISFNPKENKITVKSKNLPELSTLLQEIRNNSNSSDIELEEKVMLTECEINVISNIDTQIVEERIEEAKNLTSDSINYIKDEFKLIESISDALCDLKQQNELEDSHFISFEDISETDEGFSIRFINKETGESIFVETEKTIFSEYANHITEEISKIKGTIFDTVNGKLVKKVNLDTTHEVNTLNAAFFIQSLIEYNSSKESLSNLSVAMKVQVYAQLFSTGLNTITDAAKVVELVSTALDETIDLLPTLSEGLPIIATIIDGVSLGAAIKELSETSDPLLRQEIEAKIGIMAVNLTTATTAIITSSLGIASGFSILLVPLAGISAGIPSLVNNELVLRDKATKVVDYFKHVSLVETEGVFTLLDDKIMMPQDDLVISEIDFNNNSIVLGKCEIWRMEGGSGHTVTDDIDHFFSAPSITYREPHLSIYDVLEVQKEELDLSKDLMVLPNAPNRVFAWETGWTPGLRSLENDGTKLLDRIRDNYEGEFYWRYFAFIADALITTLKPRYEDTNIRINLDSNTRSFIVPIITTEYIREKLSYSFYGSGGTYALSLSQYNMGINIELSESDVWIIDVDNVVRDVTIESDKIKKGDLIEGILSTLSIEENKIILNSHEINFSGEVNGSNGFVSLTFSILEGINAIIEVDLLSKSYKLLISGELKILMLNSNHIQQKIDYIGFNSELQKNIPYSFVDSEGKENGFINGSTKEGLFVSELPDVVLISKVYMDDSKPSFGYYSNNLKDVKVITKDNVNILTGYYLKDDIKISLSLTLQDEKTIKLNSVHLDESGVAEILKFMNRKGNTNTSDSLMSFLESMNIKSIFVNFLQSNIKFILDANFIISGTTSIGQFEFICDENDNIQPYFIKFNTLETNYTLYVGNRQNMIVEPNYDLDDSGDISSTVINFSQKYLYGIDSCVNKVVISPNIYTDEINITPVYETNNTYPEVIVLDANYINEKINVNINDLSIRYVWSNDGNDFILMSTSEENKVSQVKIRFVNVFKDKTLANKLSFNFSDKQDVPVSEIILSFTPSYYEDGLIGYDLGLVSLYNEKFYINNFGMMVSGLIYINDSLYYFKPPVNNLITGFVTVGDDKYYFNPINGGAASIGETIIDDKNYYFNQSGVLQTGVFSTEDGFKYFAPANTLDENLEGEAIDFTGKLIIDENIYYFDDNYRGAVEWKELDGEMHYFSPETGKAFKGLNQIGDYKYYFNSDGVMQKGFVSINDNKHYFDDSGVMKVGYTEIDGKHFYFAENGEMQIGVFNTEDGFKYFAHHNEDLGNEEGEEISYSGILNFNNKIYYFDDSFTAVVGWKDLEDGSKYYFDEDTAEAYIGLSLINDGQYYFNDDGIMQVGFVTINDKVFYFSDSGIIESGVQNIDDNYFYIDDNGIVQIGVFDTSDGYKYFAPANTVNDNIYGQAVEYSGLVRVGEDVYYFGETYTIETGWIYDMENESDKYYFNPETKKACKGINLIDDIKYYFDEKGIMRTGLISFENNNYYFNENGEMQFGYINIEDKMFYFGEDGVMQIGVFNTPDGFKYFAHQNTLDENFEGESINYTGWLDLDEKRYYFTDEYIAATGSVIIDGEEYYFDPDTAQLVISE

COc1ccc(NC(=O)c2ccc(CN3C(=O)c4ccc(Cl)cc4NC(=O)[C@H]3Cc3ccccn3)cc2C)nc1 [Example 4cl, (R)-4-((8-Chloro-2,5-dioxo-3-(pyridin-2-ylmethyl)-2,3-dihydro-1H-benzo[e][1,4]diazepin-4(5H)-yl)methyl)-N-(5-methoxypyridin-2-yl)-2-methylbenzamide]
IC50 [1]: < 100 nM | IL-1β (% Inhibition) [2]: 100% | MPO (% Inhibition) [2]: 100% | IL-1β in colon tissue [2]: reduced the levels of IL-1β | MPO in colon tissue [2]: reduced | toxin effect on colon length [2]: reduced the C. difficile toxin-mediated effects on colon length | IC50 [3]: 100 to 999 nM | toxin effect on colon length [4]: significantly reduced the toxin effect on colon length | IC50 [5]: < 100 nM

Cc1cc(CN2C(=O)c3ccc(Cl)cc3NC(=O)[C@H]2Cc2ccccn2)ccc1C(=O)Nc1ccc(C(F)(F)F)cn1 [Example 5al, (R)-4-((8-Chloro-2,5-dioxo-3-(pyridin-2-ylmethyl)-2,3-dihydro-1H-benzo[e][1,4]diazepin-4(5H)-yl)methyl)-2-methyl-N-(5-(trifluoromethyl)pyridin-2-yl)benzamide]
IC50 [1]: < 100 nM | IL-1β (% Inhibition) [2]: 81% | MPO (% Inhibition) [2]: 91% | IL-1β in colon tissue [2]: reduced the levels of IL-1β | MPO in colon tissue [2]: reduced | toxin effect on colon length [2]: reduced the C. difficile toxin-mediated effects on colon length | IC50 [3]: 1000 to 10000 nM | IL-1β in colon tissues [4]: reduced the level of IL-1β | MPO in colon tissues [4]: reduced | toxin effect on colon length [4]: significantly reduced the toxin effect on colon length | IC50 [5]: < 100 nM

Cn1cc(C(=O)c2ccc(CN3C(=O)c4ccc(Cl)cc4NC(=O)[C@H]3Cc3ccccn3)cc2)c2ncccc21 [Example 31a, (R)-8-Chloro-4-(4-(1-methyl-1H-pyrrolo[3,2-b]pyridine-3-carbonyl)benzyl)-3-(pyridin-2-ylmethyl)-3,4-dihydro-1H-benzo[e][1,4]diazepine-2,5-dione]
IC50 [1]: < 100 nM | IL-1β (% Inhibition) [2]: 100% | MPO (% Inhibition) [2]: 100% | IC50 [3]: 1000 to 10000 nM | IC50 [5]: 100 to 999 nM

Cn1cc(C(=O)[C@H]2CC[C@H](CN3C(=O)c4ccc(Cl)cc4NC(=O)[C@H]3Cc3ccccn3)CC2)c2ncccc21 [Example 33b, (R)-8-Chloro-4-(((1r,4R)-4-(1-methyl-1H-pyrrolo[3,2-b]pyridine-3-carbonyl)cyclohexyl)methyl)-3-(pyridin-2-ylmethyl)-3,4-dihydro-1H-benzo[e][1,4]diazepine-2,5-dione]
IC50 [1]: < 100 nM | IL-1β (% Inhibition) [2]: 84% | MPO (% Inhibition) [2]: 41% | IC50 [3]: 1000 to 10000 nM | IC50 [5]: 100 to 999 nM

O=C1Nc2cc(Cl)ccc2C(=O)N(Cc2ccc(N3CCc4cccnc4C3=O)cc2)[C@@H]1Cc1ccccn1 [Example 49b, (R)-8-Chloro-4-(4-(8-oxo-5,6-dihydro-1,7-naphthyridin-7(8H)-yl)benzyl)-3-(pyridin-2-ylmethyl)-3,4-dihydro-1H-benzo[e][1,4]diazepine-2,5-dione]
IC50 [1]: < 100 nM | IL-1β (% Inhibition) [2]: 13% | MPO (% Inhibition) [2]: 0% | IC50 [3]: > 10000 nM | IC50 [5]: 1000 to 10000 nM

O=C1Nc2cc(Cl)ccc2C(=O)N(Cc2ccc(N3Cc4cccnc4C3=O)cc2)[C@@H]1Cc1ccccn1 [Example 49c, (R)-8-Chloro-4-(4-(7-oxo-5H-pyrrolo[3,4-b]pyridin-6(7H)-yl)benzyl)-3-(pyridin-2-ylmethyl)-3,4-dihydro-1H-benzo[e][1,4]diazepine-2,5-dione]
IC50 [1]: < 100 nM | IL-1β (% Inhibition) [2]: 30% | MPO (% Inhibition) [2]: 0% | IC50 [3]: > 10000 nM | IC50 [5]: > 10000 nM

CCc1c(Cl)c(O)c(Cl)c(O)c1C(=O)O[C@H]1[C@H](O)[C@H](OC)[C@H](OC/C2=C\C=C\C[C@H](O)/C(C)=C/[C@H](CC)[C@@H](O[C@@H]3OC(C)(C)[C@@H](OC(=O)C(C)C)[C@H](O)[C@@H]3O)/C(C)=C/C(C)=C/C[C@@H]([C@@H](C)O)OC2=O)O[C@@H]1C [fidaxomicin]
CDI recurrence [6]: 8%
